# Active and inactive are the calls of the source.
# Experiments:
# [1] = inhibitors of intracellular T. cruzi replication, confirmation, NIH3T3 host cells, beta-gal luminescence (AID 2044); format: functional, cell-based;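 note: intracellular parasites grown in NIH/3T3 mouse fibroblasts as host cells; luminescent beta-galactosidase reporter signal from transgenic T. cruzi replicating inside host cells; inhibitors lower the luminescence signal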
# [2] = cytotoxicity toward NIH3T3 fibroblasts, dose response, counter-screen, cell-based, ATP luminescence, mouse fibroblasts (AID 2010); format: functional;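 note: cells exposed to compound for about 90 hours before reading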
# Cytochrome P450 2C19 = Cytochrome P450 2C19 (Homo sapiens, UniProt P33261); assay: Cytochrome panel assay with activity outcomes. Panel member name: p450-cyp2c19 Compounds with AC50 equal or less than 10 uM are considered active; format: functional
# Chain of Cytochrome P450 2C19 (P33261 whole entry): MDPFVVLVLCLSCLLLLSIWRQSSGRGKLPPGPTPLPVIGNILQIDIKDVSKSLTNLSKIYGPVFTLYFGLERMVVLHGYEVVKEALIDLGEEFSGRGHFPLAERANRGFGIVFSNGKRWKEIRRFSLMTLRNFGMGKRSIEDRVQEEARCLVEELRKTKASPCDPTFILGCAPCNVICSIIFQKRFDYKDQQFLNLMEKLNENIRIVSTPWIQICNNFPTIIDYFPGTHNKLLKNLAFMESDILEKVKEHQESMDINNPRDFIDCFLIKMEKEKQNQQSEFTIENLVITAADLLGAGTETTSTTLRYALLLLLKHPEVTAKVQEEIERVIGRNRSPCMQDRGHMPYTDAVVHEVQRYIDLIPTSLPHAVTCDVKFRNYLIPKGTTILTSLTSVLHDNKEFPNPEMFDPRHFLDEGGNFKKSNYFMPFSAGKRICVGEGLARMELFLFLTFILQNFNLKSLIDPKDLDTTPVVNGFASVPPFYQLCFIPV
# Cytochrome P450 1A2 = biological target: T1, Cytochrome P450 1A2 (Homo sapiens, UniProt P05177);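 note: PubChem cytochrome P450 panel assay, CYP1A2 panel member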
# T1 sequence (P05177 whole entry): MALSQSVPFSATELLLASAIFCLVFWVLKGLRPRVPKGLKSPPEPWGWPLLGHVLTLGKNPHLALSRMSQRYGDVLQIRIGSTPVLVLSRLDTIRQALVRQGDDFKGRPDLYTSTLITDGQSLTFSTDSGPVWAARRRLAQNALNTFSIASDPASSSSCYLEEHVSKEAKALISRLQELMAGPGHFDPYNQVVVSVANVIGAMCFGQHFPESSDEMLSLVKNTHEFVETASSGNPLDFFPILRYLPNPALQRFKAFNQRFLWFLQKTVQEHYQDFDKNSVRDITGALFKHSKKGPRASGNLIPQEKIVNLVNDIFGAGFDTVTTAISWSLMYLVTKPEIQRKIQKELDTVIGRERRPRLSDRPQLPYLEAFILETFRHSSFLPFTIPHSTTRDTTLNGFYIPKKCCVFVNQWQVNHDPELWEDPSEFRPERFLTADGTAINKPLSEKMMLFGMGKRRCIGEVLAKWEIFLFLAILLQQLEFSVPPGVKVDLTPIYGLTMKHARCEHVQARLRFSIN
# [3] = biological target: T2, Heat shock factor protein 1 (Mus musculus, UniProt P38532); assay: inhibition of MG132-induced HSE-luciferase signal, confirmation, cell-based, NIH3T3, luminescence, dose retest (AID 2382); format: functional;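 note: NIH3T3 fibroblasts with HSF1-driven luciferase reporter stressed by proteasome inhibitor MG132; luminescence from HSF1-driven luciferase expression after 8 hours of MG132 stress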
# T2 sequence (P38532 whole entry): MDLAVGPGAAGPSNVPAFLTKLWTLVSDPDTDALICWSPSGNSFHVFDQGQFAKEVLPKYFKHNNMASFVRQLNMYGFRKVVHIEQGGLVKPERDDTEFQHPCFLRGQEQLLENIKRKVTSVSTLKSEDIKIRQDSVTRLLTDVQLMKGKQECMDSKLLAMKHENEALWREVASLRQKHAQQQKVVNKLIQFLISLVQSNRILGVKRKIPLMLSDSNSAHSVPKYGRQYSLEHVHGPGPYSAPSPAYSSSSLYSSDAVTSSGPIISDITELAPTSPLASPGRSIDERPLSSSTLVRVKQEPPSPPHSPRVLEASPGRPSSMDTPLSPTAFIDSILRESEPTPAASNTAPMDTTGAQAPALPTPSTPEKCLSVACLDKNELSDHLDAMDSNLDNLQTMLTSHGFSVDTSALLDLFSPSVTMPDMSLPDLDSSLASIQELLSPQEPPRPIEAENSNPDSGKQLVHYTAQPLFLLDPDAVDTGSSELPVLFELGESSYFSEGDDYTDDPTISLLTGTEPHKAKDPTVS
# Streptokinase A = biological target: T3, Streptokinase A (Streptococcus pyogenes serotype M1, UniProt P10520); assay: S. pyogenes streptokinase expression inhibitors, potency, dose response, plasminogen activation absorbance, OD405 (AID 1914); format: functional, Streptococcus pyogenes M1 GAS;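 note: secreted streptokinase activity via plasminogen activation per viability signal from cell pellet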
# T3 sequence (P10520 whole entry): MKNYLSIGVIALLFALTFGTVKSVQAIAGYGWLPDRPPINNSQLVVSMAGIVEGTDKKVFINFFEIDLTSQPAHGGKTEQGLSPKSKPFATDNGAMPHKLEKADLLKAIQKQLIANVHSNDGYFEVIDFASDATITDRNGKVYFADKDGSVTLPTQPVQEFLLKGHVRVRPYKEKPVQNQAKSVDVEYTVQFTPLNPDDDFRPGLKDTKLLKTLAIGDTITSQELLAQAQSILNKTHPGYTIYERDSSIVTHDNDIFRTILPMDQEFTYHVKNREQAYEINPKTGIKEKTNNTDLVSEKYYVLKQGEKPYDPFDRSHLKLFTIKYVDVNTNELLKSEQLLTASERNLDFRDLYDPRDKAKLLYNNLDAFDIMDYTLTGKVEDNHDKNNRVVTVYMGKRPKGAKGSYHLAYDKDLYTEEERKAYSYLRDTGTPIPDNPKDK
# Streptococcus = assay: Group A Streptococcus viability loss, dose response, counter-screen for streptokinase expression inhibitor project, luminescence, BacTiterGlo (AID 1915); format: functional, organism-based;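 note: potency for reduction of bacterial viability or growth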
# [4] = tested on: Streptococcus sp. 'group A'; assay: growth inhibition of control SK(-) GAS strain, dose response, counter-screen for streptokinase expression inhibitor project, luminescence, kanamycin, BacTiterGlo, confirmation (AID 1900); format: functional, organism-based
smiles,measurement,setting,value
CN(C)CCCNc1cnnc(O)c1Cl,EC50,[1],0.658 µM (active)
same,EC50,[2],> 30 µM (not active)
CN(C)c1ccc(C(=S)N2CCN(S(=O)(=O)c3ccccc3)CC2)cc1,EC50,[1],2.98 µM (active)
same,EC50,[2],> 60 µM (not active)
CCOC(=O)c1cnc(-c2ccccc2)nc1Oc1cccc(Cl)c1,AC50,Cytochrome P450 2C19; read-out: AC50,3.98 µM (inconclusive)
COc1ccc(C(=O)C2CCCN(Cc3ccc(C#CCCO)cc3)C2)cc1F (stereo not drawn),EC50,[1],0.475 µM (active)
same,EC50,[2],> 60 µM (not active)
CCCc1c(OCCCOc2ccc(OCC(=O)O)cc2)ccc(CC=O)c1O,AC50,Cytochrome P450 1A2,31.6 µM (inconclusive)
COc1ccc(C(Nc2ccccn2)c2c(NC(=O)c3ccco3)sc(C)c2C)cc1 (stereo not drawn),EC50,[1],1.86 µM (active)
same,EC50,[2],> 60 µM (not active)
CSc1ncc(C(=O)Nc2cccnc2)c(C(F)(F)F)n1,EC50,[3],> 195 µM (not active)
O=C1CC(c2nc3ccccc3[nH]2)CN1c1ccccc1F (stereo not drawn),EC50,[3],> 195 µM (not active)
CC1=[N+]([O-])C2(C)CCCCC2(O)[N+]([O-])=C1C (stereo not drawn),AC50,Cytochrome P450 2C19; read-out: AC50,15.8 µM (inconclusive)
COc1cccc(CNC(=O)Cn2c(=O)c3cccn3c3ccccc32)c1,EC50,[3],> 195 µM (not active)
CCOC(=O)Cc1csc(NC(=O)CSc2nnc(-c3ccc(OC)cc3)n2C)n1,EC50,[1],> 60 µM (not active)
same,EC50,[2],> 60 µM (not active)
O=C(Cn1cnc2c(nnn2Cc2ccc(Cl)cc2)c1=O)N1CCCc2ccccc21,EC50,[3],> 195 µM (not active)
CSc1nc(NCc2ccccc2)c2c3c(sc2n1)CN(C)CC3,EC50,[1],0.208 µM (active)
same,EC50,[2],> 30 µM (not active)
COC(=O)c1cc2ccsc2n1Cc1nc(-c2ccc(Cl)cc2)oc1C,EC50,[3],> 195 µM (not active)
O=C(O)CCN1Cc2ccccc2C1=O,EC50,[3],> 195 µM (not active)
O=C(CSc1nc2cc(Cl)ccc2s1)Nc1cccc(S(=O)(=O)N2CCOCC2)c1,EC50,[3],> 195 µM (not active)
NC(=O)C1CCN(c2ccnc3cc(Cl)ccc23)CC1,EC50,[3],> 195 µM (not active)
COC(=O)c1cc(=O)n(C2CC2)/c(=N/C2CC2)s1,AC50,Cytochrome P450 2C19,inconclusive
CCCN1C(=O)/C(=C\c2ccncc2)S/C1=N/c1ccccc1,EC50,[3],> 195 µM (not active)
O=C(NC(=S)Nn1cnc2c(cnn2-c2ccccc2)c1=O)c1ccc(Oc2ccccc2)cc1,EC50,Streptokinase A,> 150 µM (not active)
same,EC50,Streptococcus,> 150 µM (not active)
Nn1c(=O)c2ccccc2n2c(SCc3ccccc3)nnc12,EC50,[3],> 195 µM (not active)
S=C1NCN2CCN(CC2)CNC(=S)C(=S)NCN2CCN(CC2)CNC1=S,AC50,Cytochrome P450 1A2,3.16 µM (inconclusive)
O=C(O)COc1ccc(/C=N/Nc2nc(Nc3ccccc3)nc(N3CCCCC3)n2)cc1,EC50,[4],18.2 µM (active)
same,EC50,Streptokinase A,> 150 µM (not active)
same,EC50,Streptococcus,16.7 µM (active)
CCn1c(=O)c(C(=O)NNC(=O)c2ccccc2)c(O)c2ccccc21,EC50,[4],7.44 µM (active)
same,EC50,Streptokinase A,> 150 µM (not active)
same,EC50,Streptococcus,20.9 µM (active)
Cc1ccccc1-c1nc2c3ccccc3nc(S)n2n1,EC50,[4],14 µM (active)
same,EC50,Streptokinase A,> 150 µM (not active)
same,EC50,Streptococcus,> 150 µM (not active)
CC(C)(C)N(Cc1ccccc1)C(=O)COc1cccnc1[N+](=O)[O-],EC50,[4],> 150 µM (not active)
same,EC50,Streptokinase A,> 150 µM (not active)
same,EC50,Streptococcus,> 150 µM (not active)
CN(C)/C=C/C(=O)c1ccc(-c2ccc(Cl)cc2Cl)o1,EC50,[3],> 195 µM (not active)
N#Cc1cccc(-c2nccc(NCc3cccnc3)n2)c1,AC50,Cytochrome P450 2C19; read-out: AC50,20 µM (inconclusive)
COc1ccc(-n2c(=O)[nH]cc(C(=O)Nc3ccc4c(c3)OCCO4)c2=O)cc1,AC50,Cytochrome P450 2C19; read-out: AC50,10 µM (inconclusive)
Cc1ccc(C)c(NC(=O)COc2coc(CN3CCc4ccccc4C3)cc2=O)c1,EC50,[3],> 195 µM (not active)
CCN(CC)S(=O)(=O)c1ccc(N2CCN(c3cccc(OC)c3)CC2)c([N+](=O)[O-])c1,EC50,[1],1.3 µM (active)
same,EC50,[2],> 60 µM (not active)
COc1cc(/C=C2/SC(=S)N(Cc3ccccc3)C2=O)ccc1O,EC50,[4],3.89 µM (active)
same,EC50,Streptokinase A,> 150 µM (not active)
same,EC50,Streptococcus,7.59 µM (active)
CC(=O)N(CCCc1ccc(C(C)(C)C)cc1)CCCN(C)C,EC50,[1],0.65 µM (active)
same,EC50,[2],> 60 µM (not active)
COC(=O)[C@H]1[C@H]2C[C@@H]3c4[nH]c5cc(OC)ccc5c4CCN3C[C@H]2C[C@@H](OC(=O)c2ccc(N)cc2)[C@@H]1OC,EC50,[3],> 195 µM (not active)
same,EC50,[1],2.04 µM (active)
same,EC50,[2],> 30 µM (not active)
O=[N+]([O-])c1ccc(Sc2nccn2Cc2ccccc2)c([N+](=O)[O-])c1,EC50,[1],3.06 µM (active)
same,EC50,[2],> 60 µM (not active)
Cc1ccc(S(=O)(=O)c2c(C(=O)c3ccccc3)cnc3cc4c(cc23)OCCO4)cc1,EC50,[3],> 195 µM (not active)
Cc1ccccc1-n1cnc2c(sc3nc(N4CCOCC4)c4c(c32)CCCC4)c1=O,EC50,[1],1.8 µM (active)
same,EC50,[2],> 60 µM (not active)
COc1cc(NC(=O)c2cc3cccc(OC)c3o2)cc(C(=O)Nc2cccc(C(F)(F)F)c2)c1,EC50,[3],3.5 µM (active)
O=[N+]([O-])c1cccc(/C=N/Nc2nc(N3CCCCC3)nc(N3CCCCC3)n2)c1,EC50,[4],33.5 µM (active)
same,EC50,Streptokinase A,39.4 µM (active)
same,EC50,Streptococcus,> 150 µM (not active)
Cc1ccc(Cn2ncc3c(N4CCN(C)CC4)ncnc32)cc1,EC50,[3],> 195 µM (not active)
Cc1ccc(CN(C(=O)Cc2cccs2)C(C(=O)NC2CCCC2)c2ccncc2)cc1 (stereo not drawn),EC50,[1],2.29 µM (active)
same,EC50,[2],> 60 µM (not active)
CC(C)Cn1c(=O)n(C)c(=O)c2[nH]cnc21 [ISOBUTYLMETHYLXANTHINE],AC50,Cytochrome P450 1A2,20 µM (inconclusive)
COc1ccc(C2C(=O)N(C3CCCCCC3)CC(=O)N2Cc2ccccc2)cc1OC (stereo not drawn),AC50,Cytochrome P450 2C19; read-out: AC50,39.8 µM (inconclusive)
Cc1nc(-c2ccc(Cl)cc2)sc1C1(C)CC(c2ccc(Cl)cc2)=NO1 (stereo not drawn),EC50,[3],> 195 µM (not active)
O=c1c(-c2cc(F)cc(F)c2)nc2cnc(N3CCOCC3)nc2n1-c1ccccc1,AC50,Cytochrome P450 1A2,5.01 µM (inconclusive)
Oc1nc(CSc2ncnc3sccc23)nc2ccccc12,EC50,[4],0.734 µM (active)
same,EC50,Streptokinase A,> 150 µM (not active)
same,EC50,Streptococcus,14.3 µM (active)
O=C(CSc1nnc(NC(=O)C2CC(=O)N(c3ccc(F)cc3)C2)s1)NCc1ccco1 (stereo not drawn),EC50,[4],> 150 µM (not active)
same,EC50,Streptokinase A,> 150 µM (not active)
same,EC50,Streptococcus,> 150 µM (not active)
Oc1ccccc1CNn1cnnc1,AC50,Cytochrome P450 2C19; read-out: AC50,0.2 µM (inconclusive)
CNc1cc(N2CCCCCC2)ccc1[N+](=O)[O-],AC50,Cytochrome P450 2C19; read-out: AC50,3.55 µM (inconclusive)
CC(=O)Nc1c(O)oc2ccccc2/c1=N\C(C)C,AC50,Cytochrome P450 2C19,inconclusive
Cc1ccccc1Nc1c(-c2ccncc2)nc2ccc(Br)cn12,EC50,[1],0.832 µM (active)
same,EC50,[2],> 30 µM (not active)
CC(C)NC(=O)N1CC2(CCN(C(=O)c3cc(C(F)(F)F)cc(C(F)(F)F)c3)CC2)C1,AC50,Cytochrome P450 1A2,12.6 µM (inconclusive)
N#CCCn1c(=O)cnc2cnc(Oc3ccccc3)nc21,AC50,Cytochrome P450 1A2,15.8 µM (inconclusive)
Cc1ccc(CN2CCN(Cc3cccc4c3OCO4)CC2CCO)cc1 (stereo not drawn),EC50,[1],0.258 µM (active)
same,EC50,[2],> 60 µM (not active)
C[C@@](N)(C(=O)O)c1cccc(CC(=O)O)c1,AC50,Cytochrome P450 2C19; read-out: AC50,20 µM (inconclusive)
same,AC50,Cytochrome P450 1A2,39.8 µM (inconclusive)

# From ChEMBL document CHEMBL1201862, “PubChem BioAssay data set” (2004)
